Experimental findings from ChEMBL document CHEMBL4304804, “Synthesis and biological evaluation of calycanthaceous alkaloid analogs” (Bioorg Med Chem, 2019) are described below.

Values after ≈ are worked out from the molar mass of the structure shown. Active and inactive are the calls of the source. No cut-off for these calls is given here.

The subject of assay [1] is Aspergillus flavus. Briefly: Antifungal activity against Aspergillus flavus assessed as reduction in fungal cell growth incubated for 48 hrs by serial dilution method. The assay is classed as functional.
In assay [2] the test system is Cryptococcus neoformans. Briefly: Antifungal activity against Cryptococcus neoformans assessed as reduction in fungal cell growth incubated for 48 hrs by serial dilution method. The assay is classed as functional.
Assay [3] concerns Penicillium citrinum. Briefly: Antifungal activity against Penicillium citrinum assessed as reduction in fungal cell growth incubated for 48 hrs by serial dilution method. The assay is classed as functional.
The target of assay [4] is Acetylcholinesterase (Electrophorus electricus, UniProt O42275). Briefly: Inhibition of electric eel AChE by Ellman's colorimetry. (In general: Ellman's reagent forms a yellow product with free thiols.)
The test system of assay [5] is Verticillium dahliae. Briefly: Antifungal activity against Verticillium dahliae assessed as reduction in fungal cell growth incubated for 48 hrs by serial dilution method. The assay is classed as functional.
Assay [6] deals with Aspergillus niger. Briefly: Antifungal activity against Aspergillus niger assessed as reduction in fungal cell growth incubated for 48 hrs by serial dilution method. The assay is classed as functional.
Assay [7] has as its system Fusarium oxysporum. The assay can be described thus: Antifungal activity against Fusarium oxysporum assessed as reduction in fungal cell growth incubated for 48 hrs by serial dilution method. The assay is classed as functional.
In assay [8] the test system is Ralstonia solanacearum. Briefly: Antibacterial activity against Ralstonia solanacearum assessed as reduction in bacterial cell growth incubated for 24 hrs by filter paper assay. The assay is classed as functional.
In assay [9] the test system is Colletotrichum orbiculare. The assay can be described thus: Antifungal activity against Colletotrichum orbiculare assessed as reduction in fungal cell growth incubated for 48 hrs by serial dilution method. The assay is classed as functional.
In assay [10] the test system is Candida. Briefly: Antifungal activity against […] assessed as reduction in fungal cell growth incubated for 48 hrs by serial dilution method. The assay is classed as functional.
Assay [11] relates to Candida tropicalis. Briefly: Antifungal activity against Candida tropicalis assessed as reduction in fungal cell growth incubated for 48 hrs by serial dilution method. The assay is classed as functional.
For assay [12], the system named is Escherichia coli. The assay can be described thus: Antibacterial activity against Escherichia coli assessed as reduction in bacterial cell growth incubated for 24 hrs by filter paper assay. The assay is classed as functional.
Assay [13] deals with Fusarium oxysporum f. sp. vasinfectum. Briefly: Antifungal activity against Fusarium oxysporum sp. vasinfectum assessed as reduction in fungal cell growth incubated for 48 hrs by serial dilution method. The assay is classed as functional.
Assay [14] has as its system Pseudomonas aeruginosa. The assay can be described thus: Antibacterial activity against Pseudomonas aeruginosa assessed as reduction in bacterial cell growth incubated for 24 hrs by filter paper assay. The assay is classed as functional.
Assay [15] concerns Curvularia lunata. Briefly: Antifungal activity against Curvularia lunata assessed as reduction in fungal cell growth incubated for 48 hrs by serial dilution method. The assay is classed as functional.
Assay [16] deals with Staphylococcus aureus. The assay can be described thus: Antibacterial activity against Staphylococcus aureus assessed as reduction in bacterial cell growth incubated for 24 hrs by filter paper assay. The assay is classed as functional.
The test system of assay [17] is Bacillus cereus. Briefly: Antibacterial activity against Bacillus cereus assessed as reduction in bacterial cell growth incubated for 24 hrs by filter paper assay. The assay is classed as functional.
In assay [18] the test system is Cytospora. Briefly: Antifungal activity against Cytospora juglandis assessed as reduction in fungal cell growth incubated for 48 hrs by serial dilution method. The assay is classed as functional.

Acetylcholinesterase, sequence (O42275 whole entry): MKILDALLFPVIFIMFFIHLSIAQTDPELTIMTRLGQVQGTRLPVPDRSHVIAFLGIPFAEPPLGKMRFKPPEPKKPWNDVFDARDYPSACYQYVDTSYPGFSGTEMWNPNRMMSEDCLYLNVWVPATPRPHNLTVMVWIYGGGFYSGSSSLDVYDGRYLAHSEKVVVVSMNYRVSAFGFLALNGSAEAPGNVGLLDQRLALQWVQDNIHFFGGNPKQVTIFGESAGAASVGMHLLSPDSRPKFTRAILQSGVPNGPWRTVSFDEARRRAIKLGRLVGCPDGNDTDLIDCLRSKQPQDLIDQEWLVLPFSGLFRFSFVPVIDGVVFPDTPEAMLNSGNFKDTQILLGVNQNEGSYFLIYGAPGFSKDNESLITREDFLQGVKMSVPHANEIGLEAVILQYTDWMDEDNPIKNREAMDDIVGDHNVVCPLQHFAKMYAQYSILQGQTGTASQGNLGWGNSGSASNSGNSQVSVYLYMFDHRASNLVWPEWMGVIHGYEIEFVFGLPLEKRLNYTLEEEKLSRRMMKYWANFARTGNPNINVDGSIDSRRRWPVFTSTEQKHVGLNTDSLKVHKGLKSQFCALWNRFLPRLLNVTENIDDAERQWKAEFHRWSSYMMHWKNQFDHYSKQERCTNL

For the molecule `CCCC(=O)N1CCC2(Cc3cccc(C)c3)c3ccccc3N(Cc3cccc(C)c3)C12` (centres undefined), the minimum inhibitory concentration (MIC) in assay [1] stood at 250 µg/mL (≈ 570 µM); in [5] it was 62.5 µg/mL (≈ 142 µM); in [6], 125 µg/mL (≈ 285 µM); in assay [7], 125 µg/mL (≈ 285 µM); in assay [8], 250 µg/mL (≈ 570 µM); in assay [9] it was 250 µg/mL (≈ 570 µM). Moreover, the MIC in [10] was 250 µg/mL (≈ 570 µM); in assay [11], 125 µg/mL (≈ 285 µM); in assay [12], 250 µg/mL (≈ 570 µM); in [14] it was 250 µg/mL (≈ 570 µM); in [16], 250 µg/mL (≈ 570 µM); in assay [17] it was 250 µg/mL (≈ 570 µM). The MIC in [18] amounted to 62.5 µg/mL (≈ 142 µM). Moreover, the MIC entry in assay [2], in assay [3], in assay [13] and in assay [15] was “inactive” each time. This molecule also had an IC50 in assay [4] of 6.52 µM.
With `CCC(=O)N1CCC2(Cc3cccc(C)c3)c3ccccc3N(Cc3cccc(C)c3)C12` (centres undefined), the MIC in assay [1] stood at 250 µg/mL (≈ 589 µM); in assay [5], 250 µg/mL (≈ 589 µM); in assay [6], 125 µg/mL (≈ 294 µM); in [7], 125 µg/mL (≈ 294 µM); in assay [9], 250 µg/mL (≈ 589 µM); in assay [10], 250 µg/mL (≈ 589 µM). Moreover, the MIC stood at 250 µg/mL (≈ 589 µM) in assay [11]; 250 µg/mL (≈ 589 µM) in assay [12]; 250 µg/mL (≈ 589 µM) in assay [15]; 62.5 µg/mL (≈ 147 µM) in [16]; 31.2 µg/mL (≈ 73.6 µM) in [17]; 62.5 µg/mL (≈ 147 µM) in assay [18]. The MIC entry in assay [2], in [3], in assay [8], in assay [13] and in assay [14] was “inactive” throughout. This molecule also showed a half-maximal inhibitory concentration (IC50) in [4] of 0.919 µM.
For the molecule `Cc1cccc(CN2c3ccccc3C3(Cc4cccc(C)c4)CCN(C(=O)Cc4ccccc4)C23)c1` (centres undefined), the MIC was 250 µg/mL (≈ 514 µM) in assay [1]; 250 µg/mL (≈ 514 µM) in assay [3]; 250 µg/mL (≈ 514 µM) in [5]; 250 µg/mL (≈ 514 µM) in assay [6]; 250 µg/mL (≈ 514 µM) in [7]; 125 µg/mL (≈ 257 µM) in [13]. Also, the MIC in assay [18] was 250 µg/mL (≈ 514 µM). The MIC entry in [2], in [8], in assay [9], in [10], in assay [11] and in [12] was “inactive” throughout. Also, the MIC result in assay [14], in assay [15], in assay [16] and in assay [17] was “inactive” each time. Half-maximal inhibition in [4] (IC50) was put at 453 µM.
On to `CN1c2ccccc2C2(O)CCCN(C(=O)c3cccc(F)c3)C12` (centres undefined), for which the MIC entry in [1], in [2], in assay [3], in [6], in assay [7] and in assay [9] was “inactive” throughout. In addition, the MIC entry in assay [10], in assay [11], in assay [13], in [15], in assay [16] and in assay [17] was “inactive” throughout. Further, the MIC result in assay [18] is “inactive”. This molecule also showed an IC50 in [4] of 0.337 µM. Also, the MIC in [5], in [8], in assay [12] and in assay [14] was 250 µg/mL (≈ 766 µM) throughout.
Turning to `Cc1cccc(CN2c3ccccc3C3(Cc4cccc(C)c4)CCN(C(=O)CCc4ccccc4)C23)c1` (centres undefined), the MIC in [1] was determined as 250 µg/mL (≈ 499 µM); in assay [7], 250 µg/mL (≈ 499 µM); in assay [13], 62.5 µg/mL (≈ 125 µM); in assay [18], 250 µg/mL (≈ 499 µM). For the same molecule, the MIC entry in assay [2], in [3], in assay [5], in [6], in [8] and in assay [9] was “inactive” in each case. Also, the MIC entry in assay [10], in assay [11], in [12], in assay [14], in [15] and in assay [16] was “inactive” in each case. Also, the MIC result in assay [17] is “inactive”. Besides, half-maximal inhibition in assay [4] (IC50) required 0.00399 µM.
`Cc1cccc(CN2c3ccccc3C3(Cc4cccc(C)c4)CCN(C(=O)c4ccccc4C)C23)c1` (centres undefined): the MIC is 250 µg/mL (≈ 514 µM) in assay [1]; 7.81 µg/mL (≈ 16 µM) in assay [5]; 250 µg/mL (≈ 514 µM) in assay [6]; 125 µg/mL (≈ 257 µM) in [7]; 125 µg/mL (≈ 257 µM) in assay [8]; 250 µg/mL (≈ 514 µM) in assay [9]. Also, the MIC in [10] was determined as 250 µg/mL (≈ 514 µM); in assay [11], 250 µg/mL (≈ 514 µM); in assay [13] it was 125 µg/mL (≈ 257 µM); in [15], 62.5 µg/mL (≈ 128 µM); in assay [17] it was 125 µg/mL (≈ 257 µM); in [18] it was 125 µg/mL (≈ 257 µM). Further, the MIC result in assay [2], in assay [3], in assay [12], in assay [14] and in [16] was “inactive” in each case. For the same molecule, it took 112 µM to reach half-maximal inhibition in assay [4] (IC50).
`CC(=O)N1CCCC2(O)c3ccccc3N(C)C12` (centres undefined): the MIC entry in [1], in assay [2], in assay [3], in assay [5], in [6] and in assay [7] was “inactive” each time. Moreover, the MIC result in assay [9], in [10], in assay [11], in assay [12], in [13] and in assay [15] was “inactive” in each case. Moreover, the MIC result in [17] and in [18] was “inactive” each time. Moreover, the IC50 in assay [4] was 1.22 µM. The MIC in assay [8], in assay [14] and in [16] was 250 µg/mL (≈ 1010 µM) each time.
Turning to `COc1ccc(C(=O)N2CCC3(Cc4ccccc4C)c4ccccc4N(Cc4ccccc4C)C23)cc1` (centres undefined), the MIC in [1], in assay [5], in [6], in [7] and in [18] was 250 µg/mL (≈ 497 µM) throughout. Also, the MIC result in assay [2], in assay [3], in assay [8], in [9], in [10] and in assay [11] was “inactive” in each case. The MIC entry in assay [12], in [13], in assay [14], in [15], in assay [16] and in [17] was “inactive” throughout. In [4], this molecule had a half-maximal inhibitory concentration (IC50) of 126 µM.
Consider `C[C@@H]1[C@H](O)[C@@H](C)/C=C/C=C/C=C/C=C/C=C/C=C/C=C/[C@H](O[C@@H]2O[C@H](C)[C@@H](O)[C@H](N)[C@@H]2O)C[C@@H]2O[C@](O)(C[C@@H](O)C[C@@H](O)[C@H](O)CC[C@@H](O)C[C@@H](O)CC(=O)O[C@H]1C)C[C@H](O)[C@H]2C(=O)O` [AMPHOTERICIN B], for which the minimum inhibitory concentration (MIC) in [2] was 1.96 µg/mL (≈ 2.12 µM); in [10] it was 250 µg/mL (≈ 271 µM).
For `OC(Cn1cncn1)(Cn1cncn1)c1ccc(F)cc1F` [FLUCONAZOLE], the results for the MIC in assay [10] and in assay [11] were 62.5 µg/mL (≈ 204 µM) and 250 µg/mL (≈ 816 µM), respectively.
GENTAMICIN: the minimal inhibitory concentration (MIC) turned out to be 62.5 µg/mL in assay [8], 1.96 µg/mL in assay [12] and 1.96 µg/mL in assay [14].
Take `COC(=O)Nc1nc2ccccc2[nH]1` [CARBENDAZIM]: the MIC in [1] came to 7.81 µg/mL (≈ 40.8 µM); in [3], 1.96 µg/mL (≈ 10.3 µM); in [5], 7.81 µg/mL (≈ 40.8 µM); in assay [7], 125 µg/mL (≈ 654 µM); in [9], 125 µg/mL (≈ 654 µM); in assay [13] it was 62.5 µg/mL (≈ 327 µM). Further, the MIC in assay [15] stood at 250 µg/mL (≈ 1310 µM); in [18], 31.2 µg/mL (≈ 163 µM). In assay [6], the MIC result was “inactive”.
On to `CC1(C)S[C@@H]2[C@H](NC(=O)Cc3ccccc3)C(=O)N2[C@H]1C(=O)O` [PENICILLIN G], for which the minimum inhibitory concentration (MIC) came to 15.6 µg/mL (≈ 46.7 µM) in assay [16] and 7.81 µg/mL (≈ 23.4 µM) in assay [17].
Take `N#Cc1c(Cl)c(Cl)c(Cl)c(C#N)c1Cl` [CHLOROTHALONIL]: the MIC in assay [1] came out at 7.81 µg/mL (≈ 29.4 µM); in [3], 15.6 µg/mL (≈ 58.8 µM); in assay [5] it was 31.2 µg/mL (≈ 118 µM); in assay [6], 15.6 µg/mL (≈ 58.8 µM); in assay [7] it was 62.5 µg/mL (≈ 235 µM); in [9], 250 µg/mL (≈ 940 µM). The MIC worked out at 250 µg/mL (≈ 940 µM) in assay [13], 125 µg/mL (≈ 470 µM) in [15] and 62.5 µg/mL (≈ 235 µM) in assay [18].
`CN[C@@H]1[C@H](O[C@H]2[C@H](O[C@H]3[C@H](O)[C@@H](O)[C@H](N=C(N)N)[C@@H](O)[C@@H]3N=C(N)N)O[C@@H](C)[C@]2(O)C=O)O[C@@H](CO)[C@H](O)[C@H]1O` [STREPTOMYCIN]: the MIC in [8] is 250 µg/mL (≈ 430 µM); in [12], 31.2 µg/mL (≈ 53.7 µM). The MIC entry in assay [14] was “inactive”.

The term MIC denotes the lowest concentration found to suppress growth. Broadly, the IC50 is the concentration that gives 50% inhibition. Low values mean inhibition by little substance, high ones a need for much substance.
